# Literature values in patent US11857553B2, “Chromium containing compositions for improving health and fitness” (NUTRITION 21, LLC, priority 2016, dated 2024).
# Assays:
# [1] = rats, several thousand times the upper limit of the ESADDI for chromium for humans
# chromium absorption = settings: orally administered CrCl3
Compound,toxicity [1],effect on chromium absorption (chromium absorption)
[Cl][Cr]([Cl])[Cl] [chromium chloride],without toxic effects,–
chromium picolinate,without toxic effects,–
CC(=O)Oc1ccccc1C(=O)O [aspirin],–,facilitate chromium absorption
COc1ccc2c(c1)c(CC(=O)O)c(C)n2C(=O)c1ccc(Cl)cc1 [indomethacin],–,facilitate chromium absorption
